Assay results taken from BindingDB's records for doi:10.1021/acschembio.6b00511 (Novartis Institutes For Biomedical Research, 2016).
Where “and” joins values, the source holds several entries; their conditions need not be identical. Identical values can stand only once.

Key:
[1] = target: T1, Serine/threonine-protein kinase WNK1 [1-491] (Homo sapiens, UniProt Q9H4A3); experiment: WNK1 Mobility Shift Assay; conditions: pH 7.5
T1 construct: 1-491
Protocol: A mixture of fluorescein labeled OSR1 peptide substrate (Toray Research Center, Inc.) and ATP was prepared with final concentrations of 10 and 25 μM, respectively, in 7 μL of reaction buffer [20 mM HEPES Na (pH 7.5), 1 mM MnCl2, 0.01% Tween 20, and 2 mM DTT]. Compounds at final concentrations from 0.003 to 100 μM in 1 μL were added to the peptide/ATP mixture at a final DMSO concentration of 10%. The reaction was initiated by the addition of 2 μL of GST-WNK1 (1−491; Carna Biosciences) that was 86% pure at a final concentration of 25 nM in a 384-well plate. After incubation for 3 h at 25 °C, where 15% conversion of the substrate to the product was observed, 10 μL of a stop buffer containing 0.2% coating-3 reagent with 2 mM EDTA was added. For 800 μM ATP, the WNK1 assay was performed for 50 min at 25 °C, where 15% conversion of the substrate to the product was observed. Aliquots from each well were transferred onto a four-sipper chip on a Labchip3

[2] = target: T1, Serine/threonine-protein kinase WNK1 [1-491]; experiment: WNK In Vitro Radiometric Assays; conditions: pH 7.3
Protocol: (§1) The assay utilized 5 to 10 nM of WNK1−4 protein compared to 25 nM used for mobility shift assay, enabling a more accurate comparison of selectivity among potent inhibitors. Assays measured the incorporation of 33P from [γ-33P]ATP into myelin basic protein (MBP) coated in the wells of 96-well ScintiPlates (PerkinElmer). Each well of the MBP-coated ScintiPlates held 100 μL of a solution containing 20 mM HEPES at pH 7.3, 5 mM MnCl2 (WNK1 and WNK4) or 3 mM MnCl2 (WNK2 and WNK3), 0.01% Tween-20 (WNK1, WNK3, and WNK4) or 0.02% Tween-20 (WNK2), 1 mM TCEP, 2% DMSO, 1 μM ATP (WNK1, WNK3, and WNK4) or 2 μM ATP (WNK2), 1 μCi [γ -33P]ATP (WNK1, WNK2, WNK4) or 0.25 μCi [γ-33P]ATP (WNK3), WNK kinase enzyme (5 nM WNK1, 10 nM WNK2, 5 nM WNK3, or 10 nM WNK4), and the compound at the desired concentration. The plate was sealed and mixed for 20 s at 800 rpm on a benchtop plate shaker. The plate was then placed in a 25 °C shaking incubator at 175 rpm. Reactio

[3] = target: T2, Serine/threonine-protein kinase WNK2 [166-489] (Homo sapiens, UniProt Q9Y3S1); experiment: WNK In Vitro Radiometric Assays; conditions: pH 7.3
T2 construct: 166-489
Protocol: as §1

[4] = target: T3, Serine/threonine-protein kinase WNK3 [1-434] (Homo sapiens, UniProt Q9BYP7); experiment: WNK In Vitro Radiometric Assays; conditions: pH 7.3
T3 construct: 1-434
Protocol: as §1

[5] = target: T4, Serine/threonine-protein kinase WNK4 [1-444] (Homo sapiens, UniProt Q96J92); experiment: WNK In Vitro Radiometric Assays; conditions: pH 7.3
T4 construct: 1-444
Protocol: as §1

T1 sequence (Q9H4A3 1-491): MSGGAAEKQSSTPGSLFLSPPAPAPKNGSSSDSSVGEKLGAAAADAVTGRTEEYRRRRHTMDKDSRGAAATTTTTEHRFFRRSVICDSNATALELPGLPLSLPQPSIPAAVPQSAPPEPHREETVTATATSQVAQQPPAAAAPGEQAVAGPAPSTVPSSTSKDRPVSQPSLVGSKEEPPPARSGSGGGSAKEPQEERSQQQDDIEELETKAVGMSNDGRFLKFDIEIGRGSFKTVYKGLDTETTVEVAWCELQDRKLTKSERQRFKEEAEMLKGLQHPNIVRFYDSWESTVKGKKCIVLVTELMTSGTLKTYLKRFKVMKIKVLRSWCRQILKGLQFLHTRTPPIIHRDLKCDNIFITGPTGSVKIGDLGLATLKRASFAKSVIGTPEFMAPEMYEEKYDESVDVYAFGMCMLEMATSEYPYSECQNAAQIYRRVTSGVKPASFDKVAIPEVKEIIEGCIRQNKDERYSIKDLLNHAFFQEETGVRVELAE
T4 sequence (Q96J92 1-444): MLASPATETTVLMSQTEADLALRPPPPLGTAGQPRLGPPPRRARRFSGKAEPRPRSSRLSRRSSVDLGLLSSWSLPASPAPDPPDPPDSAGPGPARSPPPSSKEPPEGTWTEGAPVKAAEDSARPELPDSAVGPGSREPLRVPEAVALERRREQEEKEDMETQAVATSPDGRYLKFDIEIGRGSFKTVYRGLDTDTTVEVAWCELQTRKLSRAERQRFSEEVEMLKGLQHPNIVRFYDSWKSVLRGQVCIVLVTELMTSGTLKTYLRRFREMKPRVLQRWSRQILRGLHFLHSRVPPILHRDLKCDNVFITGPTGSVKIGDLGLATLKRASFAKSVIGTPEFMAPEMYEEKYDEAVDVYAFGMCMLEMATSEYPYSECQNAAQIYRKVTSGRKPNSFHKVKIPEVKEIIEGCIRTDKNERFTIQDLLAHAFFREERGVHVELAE
T2 sequence (Q9Y3S1 166-489): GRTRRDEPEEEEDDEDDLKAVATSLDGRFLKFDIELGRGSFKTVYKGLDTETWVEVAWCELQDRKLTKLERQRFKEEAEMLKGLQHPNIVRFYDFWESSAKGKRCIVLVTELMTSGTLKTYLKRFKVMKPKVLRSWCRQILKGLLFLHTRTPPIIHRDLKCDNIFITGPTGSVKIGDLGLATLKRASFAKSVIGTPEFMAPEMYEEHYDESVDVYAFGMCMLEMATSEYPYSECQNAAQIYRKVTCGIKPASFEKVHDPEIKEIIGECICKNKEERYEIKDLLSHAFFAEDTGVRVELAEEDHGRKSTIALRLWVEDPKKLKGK
T3 sequence (Q9BYP7 1-434): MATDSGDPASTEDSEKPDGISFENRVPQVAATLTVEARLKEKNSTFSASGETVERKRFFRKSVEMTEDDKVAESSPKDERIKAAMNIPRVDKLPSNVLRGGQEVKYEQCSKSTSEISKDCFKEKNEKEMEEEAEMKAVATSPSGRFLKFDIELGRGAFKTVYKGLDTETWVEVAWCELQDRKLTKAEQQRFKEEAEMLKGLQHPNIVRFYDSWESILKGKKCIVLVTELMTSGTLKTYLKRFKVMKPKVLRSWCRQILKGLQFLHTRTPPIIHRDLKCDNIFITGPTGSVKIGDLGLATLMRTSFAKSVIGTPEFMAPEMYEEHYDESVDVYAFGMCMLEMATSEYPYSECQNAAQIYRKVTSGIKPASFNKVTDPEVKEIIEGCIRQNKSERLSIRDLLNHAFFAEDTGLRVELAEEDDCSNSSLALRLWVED

SMILES: CNc1nc(-c2ccc3c(c2)CCN3C(=O)c2ccccc2OCc2ccc(Cl)cc2)cs1 [(2-((4-Chlorobenzyl)oxy)phenyl)(5-(2-(methylamino)thiazol-4-yl)indolin-1-yl)methanone (Compound 2)]
- IC50 [1]: 180 nM and 150 nM
- IC50 [2]: 64 nM
- IC50 [3]: 50 nM
- IC50 [4]: 377 nM
- IC50 [5]: 187 nM
